Data taken from publication PMC3835791, “Non-Invasive Imaging of Tumors by Monitoring Autotaxin Activity Using an Enzyme-Activated Near-Infrared Fluorogenic Substrate” (PLoS ONE, 2013).

What was measured:
Purified human ATX [1] = biological target: T1, Purified human ATX (Homo sapiens, UniProt Q13822); test: Michaelis constant of fluorogenic ATX substrates; type: biochemical; conditions: fluorogenic ATX substrate, rate of fluorescence increase at varying substrate concentrations
T1 construct: purchased Echelon Biosciences, Inc. (Salt Lake City, UT)
Method: (§1) AR-2 (100 nM) was incubated with the indicated enzyme in buffer containing 50 mM Tris-Cl pH 8.0, 5 mM KCl, 1 mM CaCl2, 1 mM MgCl2, 140 mM NaCl, and 1 mg/mL fatty acid free bovine serum albumin. Reactions were immediately placed in a Spectramax M2 plate reader (Molecular Devices, Sunnyvale, CA) set at 37°C, monitoring fluorescence exciting at 750 nm and emitting at 805 nm over time. Unless otherwise stated, all reactions used 10 nM enzyme, except alkaline phosphatase, which was performed at 0.1 unit/µL.
(§2) The Michaelis constant (Km) was determined for each compound by measuring the rate of fluorescence increase at varying substrate concentrations using Prism to fit to the Michaelis-Menton equation. Inner filter effects were overcome using previously described methods. The inhibition constant (Ki) for each set of reactions was determined from the IC50 following standard methods.

human ATX = biological target: T2, human ATX (Homo sapiens, UniProt Q13822); test: AR-2 reactions with purified enzymes: human ATX; type: biochemical; conditions: AR-2 100 nM, 10 nM enzyme
T2 construct: purchased Echelon Biosciences, Inc. (Salt Lake City, UT)
Method: as §1

mouse ATX = biological target: T3, mouse ATX (Mus musculus, UniProt Q9R1E6); test: AR-2 reactions with purified enzymes: mouse ATX; type: biochemical; conditions: AR-2 100 nM, 10 nM enzyme
T3 construct: purchased R&D Systems (Minneapolis, MN)
Method: as §1

[2] = tested on: human NPP1, human and mouse NPP7, shrimp alkaline phosphatase, human LPLA2 and human INPP4A; test: AR-2 reactions with purified enzymes homologous to ATX (selectivity panel); type: biochemical; conditions: AR-2 100 nM, 10 nM enzyme (alkaline phosphatase 0.1 unit/µL), versus buffer control
Method: as §1

[3] = biological target: T4, ATX in media from COS-7 cells (Homo sapiens, UniProt Q13822); test: AR-2 activation by media from COS-7 cells transfected with ATX-encoding plasmid; type: cell-based; conditions: AR-2 1 µM
T4 construct: expressed in transfected cells; host or cells: COS-7
Method: COS-7 cells grown in Dulbecco's Modified Eagle Medium (DMEM) supplemented with 10% FBS and penicillin/streptomycin were transfected with human β ATX cDNA inserted into pcDNA DEST40 (Invitrogen, CA) or mock plasmid in DMEM without FBS using TransIT®-2020 transfection reagent (Mirus Bio, WI) according to the manufacturer's protocol.
(§3) Equal volumes of cell media (COS-7) or conditioned media (MDA-MB-231 or MDA-MB 435) were mixed with buffer to achieve a final concentration of AR-2 (1 µM). All other conditions were as described for purified enzymes.

[4] = tested on: MDA-MB-231 orthotopic tumor (ATX activity); test: In vivo NIRF imaging and ex vivo tissue analysis of mice with orthotopic tumors
Excerpt: Animal studies were approved by the Institutional Animal Care and Use Committee (IACUC) of the University of Utah (protocol numbers 10-10016 and 12-05013). Tumors in mice were established as previously described, [41]. Briefly, approximately ten-week old female nude (Nu/Nu) mice (Charles River Laboratories International, Wilmington, MA) were lightly anesthetized with isoflurane and subcutaneously inoculated with MDA-MB-231 cells in the left thoracic mammary glands. Prior to inoculation, cells were suspended in Extracel to make 5×10^7 cells/mL and each mouse received 0.1 mL of Extracel tumor suspension. To reduce auto-fluorescence arising from the feed, mice were switched to specially formulated diet (2920X, Harlan Laboratories, WI) at least two days prior to imaging.
Six weeks after tumor graft, mice were imaged using AR-2. To visualize tumors, AR-2 was diluted in PBS, filtered through a 0.2 µm porous membrane, and intravenously injected via the lateral vein at 0.5 mg/kg b.w. bolus. The animals were then imaged 48 h after injection with a Pearl Impulse Imager (LI-COR Biosciences, NE) using the 800 nm channel. The fluorescence signals from acquired images were analyzed using Pearl Impulse Software v 2.0 (LI-COR Biosciences) according the manufacturer's protocols. […] ATX-Red dosing, delivery and imaging were unchanged.
Animals were sacrificed, organs were dissected and weighed, then ex vivo fluorescence was imaged and quantified as previously described. Tumors were immediately frozen until further use. Thawed tumors were homogenized in ice cold buffer containing 10 mM Tris pH 7.4, 200 mM NaCl, 10% glycerin, 5 mM EDTA and 1× Halt protease inhibitor cocktail (Thermo Scientific, Rockford, Il.) at a ratio of 40 mg tumor to 1 mL buffer. Samples were centrifuged at 14,000× g at 4°C. ATX levels were determined by diluting supernatants ten times in RD5-10 and assayed using a Human ENPP-2/Autotaxin ELISA (R&D Systems, Minneapolis, MN) and an Autotaxin Sandwich ELISA (Echelon Biosciences, Inc., Salt Lake City, UT) using the manufacturers' protocol. Total protein levels were determined by the method of Bradford. Statistical significance was compared using a two-tailed t-test using Prism.

[5] = Pharmacokinetics of AR-2 in plasma after intravenous dosing; type: in vivo, mice
Method: To investigate preliminary PK of AR-2, female BALB/c mice aged 8–10 wks old (Charles River Laboratories, MA) were used. The animals were allowed to acclimatize to housing at least one week prior to use. At day 0, AR-2 was administered as a single bolus injection through lateral tail vein at a dosage of 1.0 mg/kg b.w. The animals were then lightly anesthetized with isoflurane for blood collection at 0, 0.08, 0.25, 0.5, 1, 2, 4, 6, 24, and 48 h after AR-2 administration. Blood samples were collected in EDTA coated tubes by submandibular bleeding or caudal vena cava (at time of sacrifice) with the maximum number of two blood collections from each animal. The collected blood samples were centrifuged, and the plasma was stored at −20°C until analysis.
To determine the concentration of AR-2 in plasma, samples were prepared according to the following procedures. Plasma samples were mixed with nine volumes of tert-butanol∶water (7∶1) then centrifuged at 14,000× g to pellet precipitated proteins. The resulting supernatant was frozen and lyophilized. Samples were then reconstituted in cold PBS and subjected to HPLC analysis using a C18 column (Waters, Milford, MA) with a gradient of 5–60% acetonitrile in 50 mM triethylammonium acetate (pH 6.0). Peaks with absorbance at 778 nm were integrated and compared to mouse plasma samples containing known concentrations of AR-2. The resulting AR-2 concentration versus time data were plotted and fitted with a sum of two exponentials to calculate plasma half-life (t1/2) and various pharmacokinetic parameters using the PK package in R Statistics (version 2.15.1).

[6] = biological target: T5, ATX in conditioned media from MDA-MB-435 and MDA-MB-231 cells (Homo sapiens, UniProt Q13822); test: AR-2 activation by conditioned media from cancer cells overexpressing ATX, with and without PF-8380; type: cell-based; conditions: PF-8380 1 µM, conditioned media from MDA-MB-435 or MDA-MB-231 cells, AR-2 1 µM
T5 construct: host or cells: MDA-MB-231 and MDA-MB-435 (conditioned media concentrated about 40-fold)
Method: MDA-MB-231 and MDA-MB-435 cells were grown to 80% confluence in Roswell Park Memorial Institute (RPMI) medium supplemented with 10% FBS. Cells were rinsed twice with PBS and grown for approximately 60 h in RPMI supplemented with 1% FBS. Media were centrifuged at 1000× g for 1 min to collect cells. Conditioned media was prepared by concentrating the supernatant ∼40-fold using Amicon Ultra YM30 (Millipore, Billerica, MA).
as §3

Purified human ATX [7] = biological target: T1, Purified human ATX; test: Evaluation of ATX inhibition with fluorogenic substrates (AR-2 or FS-3); type: biochemical; conditions: human ATX 2 nM, 37°C, Ki determined from the IC50
Method: DMSO was spiked into each reaction mixture to equalize vehicle concentrations. Purified human ATX (2 nM final concentration) was mixed with varying concentrations of inhibitor at 37°C for 10 min, then AR-2 or FS-3 was added to a final concentration of 1 µM. The rates of fluorescence increase were measured for up to 2 h. The initial velocity of fluorescence increase was determined and normalized to control reactions. The IC50 of each compound was calculated by fitting a standard curve using a sigmoidal dose-response (variable slope) nonlinear regression curve using GraphPad Prism (version 5.03).
as §2

[8] = MDA-MB-231 xenografts, 48 h after AR-2 dosing, ex vivo

For `CC1(C)C(/C=C/C2=C(Oc3ccc(S(=O)(=O)O)cc3)C(=C/C=C3/N(CCCCS(=O)(=O)O)c4ccc(S(=O)(=O)[O-])cc4C3(C)C)/CCC2)=[N+](CCCCCC(=O)NCCCCCC(=O)OC[C@@H](O)COP(=O)(O)OCCNC(=O)CCOCCOCCOCCOCCNC(=O)CCCCCN2/C(=C/C=C3\CCCC(/C=C/C4=[N+](CCCS(=O)(=O)O)c5ccc(N(CCCS(=O)(=O)O)CCCS(=O)(=O)O)cc5C4(C)C)=C3Cl)C(C)(C)c3c2ccc2cc(S(=O)(=O)[O-])ccc32)c2ccc(S(=O)(=O)O)cc21` [AR-2], the Km (Purified human ATX [1]) was 0.66 ± 0.05 µM, the “activation of AR-2 fluorescence by human ATX” value (human ATX) was “activated AR-2 with similar efficiencies” and the “activation of AR-2 fluorescence by mouse ATX” value (mouse ATX) was “activated AR-2 with similar efficiencies”. The “activation of AR-2 fluorescence by related enzymes” value [2] was “none of the related enzymes tested generated a fluorescence response above buffer control”, the “activation of AR-2 by media from ATX-transfected versus mock-transfected COS-7 cells” value [3] was “media from ATX-transfected, but not mock-transfected, cells activated AR-2” and the “NIRF signal in excised tumors compared to most other organs” value [4, 8] was “strongly elevated”. For the same compound, the “NIRF signal in kidneys and liver” value [4, 8] was “Moderate signals”, the “NIRF signal in stomach” value [4, 8] was “Modest fluorescence” and the “apparent volume of distribution (Vd) in 20 g mouse” value ([5]; 20 g mouse) was 8.6 mL. The “fraction of AR-2 eliminated” value ([5]; 42 h after dosing (5 half-lives)) was “approximately 97%”, the “half-life of first phase of bi-exponential plasma decrease” value ([5]; BALB/c mice, 1.0 mg/kg i.v. bolus, bi-exponential fit, first phase) was 18 min and the “apparent volume of distribution (Vd)” value ([5]; mice, i.v.) was 432 mL/kg, b.w. The “apparent volume of distribution as share of body weight” value ([5]; mice, i.v.) was ~43 % of body weight.

In the case of `O=C(CCN1CCN(C(=O)OCc2cc(Cl)cc(Cl)c2)CC1)c1ccc2[nH]c(=O)oc2c1` [PF-8380, reference compound], the “rate of AR-2 fluorescence signal generation in conditioned media with inhibitor” value [6] is reported as “dramatically reduced” and the “AR-2 fluorescence signals in excised tumors normalized to protein, inhibitor-treated versus vehicle-treated mice” value ([4]; PF-8380 30 mg/kg single oral gavage 20 min prior to AR-2 injection, MDA-MB-231 tumors, P<0.001) is reported as “significantly reduced”.

`CCCCCCCCCCCCCC(=O)Nc1ccc(CP(=O)(O)O)cc1` [S32826] gave a Ki (Purified human ATX [7]; ATX substrate AR-2 (1 µM)) of 1.6 ± 1.9 nM and a Ki (Purified human ATX [7]; ATX substrate FS-3 (1 µM)) of 5.5 ± 3.3 nM.
